Results as given in patent US20250236599A1, “LIPID NANOPARTICLES FOR OLIGONUCLEOTIDE DELIVERY” (ZIPHIUS NV, priority 2021, published 2025).

Tests used:
[1] = LNP particle size, polydispersity index and charge by Zeta Sizer; assay type: physicochemical; settings: LNP lipid:DOPE:Cholesterol:DMG-PEG 35:20:43.5:1.5, firefly luciferase saRNA; for Polydispersity Index (PI) / Z-average (nm): N/P approx. 40/1
Description: Cationic lipids, DOPE, Cholesterol and DMG-PEG lipid were solubilized in ethanol or DMSO at a molar ratio of 35:20:43.5:1.5 and a concentration of 100:25:20:25 μg/μL for C12-200 or 170:25:20:25 μg/μL for the comparator lipids. Lipid nanoparticles (LNP) were prepared by targeting an N/P ratio of approximately 40/1 with saRNA. Briefly, the firefly luciferase saRNA of approximately 9659 nucleotides was diluted to 0.5 mg/mL in 5 mM citrate buffer, pH 4.5. Microfluidic mixer (Ignite from Precision Nanosystems, California, USA) was used to mix the lipid solution with the saRNA aqueous solution at a ratio of about 1:3 (vol/vol) with total flow rates above 10 ml/min. The ethanol was then removed, and the external buffer replaced with 10 mM TRIS-HCL, PH 7.4, by dialysis. Finally, the lipid nanoparticles were filtered through a 0.2 μm pore sterile filter. Lipid nanoparticle particle size was 50-150 nm diameter and polydispersity index (PI) of 0.1-0.4 as determined by Zeta Sizer (Malvern Panalytical, UK). The charge of the formulation was also measured by Zeta Sizer and ranged between 20 to −20 mV.

[2] = saRNA loading / encapsulation efficiency, Quant-IT RiboGreen assay; assay type: physicochemical; settings: LNP lipid:DOPE:Cholesterol:DMG-PEG 35:20:43.5:1.5, firefly luciferase saRNA
Description: The saRNA loading in LNP formulations was quantified using a Quant-IT RiboGreen assay (Thermo Fisher Scientific, Waltham, Massachusetts, USA) as previously described. 14 samples were diluted tenfold in 1x Tris HCL-EDTA (TE) buffer (10 mM Tris-HCL, 1 mM EDTA, pH 7.5) with or without 2% (v/v) Triton X-100 (Sigma-Aldrich, Saint Louis, Missouri, USA). Standard solutions were also prepared in 1xTE with or without 2% (v/v) Triton X-100 to account for any variation in fluorescence. The assay was performed according to the manufacturer's protocol. Samples were loaded on a black 96-well plate and analysed for fluorescence on a microplate reader (Tecan Infinite® 200 PRO) at an excitation of 485 nm and emission at 528 nm. Encapsulation efficiency was calculated between 80-100%.

[3] = Weight evolution of the animals following administration of LNPs; assay type: in vivo; settings: female SWISS mice
Description: (§1) Female SWISS mice (6 weeks old) were purchased from Janvier Laboratories (Paris, France) and kept in individually ventilated cages with access to food and water ad libitum. Mice were anesthetized with isoflurane (Zoetis, Louvain-La-Neuve, Belgium) (5% for induction and 2% for maintenance) and intramuscularly injected with a total of 1 μg in 100 μL Tris-HCL (50 μL per leg) LNP-formulated luciferase saRNA (for each group n=7). The expression of the luciferase induced bioluminescence was measured via non-invasive In vivo bioluminescent imaging (In vivo Imaging System (IVIS) Lumina III, Perkin Elmer, Waltham, Massachusetts, USA), 10 minutes after subcutaneous injection of […] of D-luciferin (GoldBio, Saint Louis, Missouri, USA, #LUCK-1G) were measured in day 0 (before injection), day 1, day 3, day 5, day 7, day 10, day 15 and day 20.

[4] = system: expression of the luciferase saRNA; assay: In vivo bioluminescent imaging after intramuscular injection of LNP-formulated luciferase saRNA; settings: 1 μg LNP-formulated luciferase saRNA intramuscularly, female SWISS mice
Description: as §1

[5] = Day 1, 1 μg LNP-formulated saRNA intramuscularly
[6] = Day 3, 1 μg LNP-formulated saRNA intramuscularly
[7] = Day 5, 1 μg LNP-formulated saRNA intramuscularly
[8] = Day 7, 1 μg LNP-formulated saRNA intramuscularly
[9] = Day 10, 1 μg LNP-formulated saRNA intramuscularly
[10] = Day 15, 1 μg LNP-formulated saRNA intramuscularly
[11] = Day 20, 1 μg LNP-formulated saRNA intramuscularly

Compound	Zetapotential (mV) [1] [mV]	Polydispersity Index (PI) [1]	Z-average (nm) [1] [nm]	Encapsulation (%) [2] [%]	Weight ([3]; Day 0) [g]	Weight [3, 5] [g]	Weight [3, 6] [g]	Weight [3, 7] [g]	Weight [3, 8] [g]	Weight [3, 9] [g]	Weight [3, 10] [g]	Weight [3, 11] [g]	Bioluminescence expression of LNPs ([4]; Day 1)	Bioluminescence expression of LNPs ([4]; Day 3)	Bioluminescence expression of LNPs ([4]; Day 5)	Bioluminescence expression of LNPs ([4]; Day 7)	Bioluminescence expression of LNPs ([4]; Day 10)	Bioluminescence expression of LNPs ([4]; Day 15)	Bioluminescence expression of LNPs ([4]; Day 20)
CCCCCCC(CCCC)C(=O)OCCN(CCOC(=O)C(CCCC)CCCCCC)CCN1CCN(CCN(CCOC(=O)C(CCCC)CCCCCC)CCOC(=O)C(CCCC)CCCCCC)CC1 (stereo not shown) [Compound 9-32, ((piperazine-1,4-diylbis(ethane-2,1-diyl))bis(azanetriyl))tetrakis(ethane-2,1-diyl) tetrakis(2-butyloctanoate)]	−16.38	0.17	54.53	93.33	27.00	26.94	28.46	28.26	28.11	27.91	29.69	30.94	5.13E+06	1.31E+08	2.76E+08	3.71E+08	1.08E+07	6.35E+05	1.29E+05
CCCCCCCCCCCCCCOC(=O)CCN(CCC(=O)OCCCCCCCCCCCCCC)CCN(CCC(=O)OCCCCCCCCCCCCCC)CCN1CCN(CCN(CCC(=O)OCCCCCCCCCCCCCC)CCC(=O)OCCCCCCCCCCCCCC)CC1 [Comparator 2 (C2), reference compound]	8.70	0.16	96.53	97.61	27.80	27.00	27.70	27.44	27.84	27.31	29.54	29.79	2.19E+07	8.21E+07	2.21E+08	1.62E+08	2.27E+07	2.04E+05	9.42E+04
CCCCCCC(CCCC)C(=O)OCCCCCCN(CCCCCCOC(=O)C(CCCC)CCCCCC)CCN1CCN(CCN(CCCCCCOC(=O)C(CCCC)CCCCCC)CCCCCCOC(=O)C(CCCC)CCCCCC)CC1 (stereo not shown) [Compound 9-34, ((piperazine-1,4-diylbis(ethane-2,1-diyl))bis(azanetriyl))tetrakis(hexane-6,1-diyl) tetrakis(2-butyloctanoate)]	−7.92	0.16	71.78	94.93	27.77	26.14	28.33	28.51	28.49	28.97	30.24	31.51	4.79E+07	7.26E+08	7.42E+08	9.12E+08	4.70E+07	1.43E+05	3.37E+04
CCCCCCCCC(CCCCCC)C(=O)OCCN(CCOC(=O)C(CCCCCC)CCCCCCCC)CCN(CCOC(=O)C(CCCCCC)CCCCCCCC)CCN1CCN(CCN(CCOC(=O)C(CCCCCC)CCCCCCCC)CCOC(=O)C(CCCCCC)CCCCCCCC)CC1 (stereo not shown) [Compound 9-29, ((2-(4-(2-((2-(bis(2-((2-hexyldecanoyl)oxy)ethyl)amino)ethyl) (2-((2-hexyldecanoyl)oxy)ethyl)amino)ethyl)piperazin-1-yl)ethyl)azanediyl)bis(ethane-2,1-diyl) bis(2-hexyldecanoate)]	−10.51	0.15	102.48	94.31	29.59	29.53	29.74	30.04	30.93	30.63	30.89	32.69	4.13E+05	1.68E+07	4.25E+07	6.13E+07	3.92E+07	1.44E+06	5.43E+05
CCCCCCCCCCC(O)CN(CCN1CCN(CCN(CC(O)CCCCCCCCCC)CC(O)CCCCCCCCCC)CC1)CCN(CC(O)CCCCCCCCCC)CC(O)CCCCCCCCCC (stereo not shown) [Compound C12-200, 1,1′-((2-(4-(2-((2-(bis (2-hydroxydodecyl)amino)ethyl) (2-hydroxydodecyl)amino)ethyl)piperazin-1-yl)ethyl)azanediyl) bis(dodecan-2-ol), reference compound]	9.59	0.19	94.03	97.46	28.61	27.17	28.62	28.98	28.97	29.23	30.16	31.23							
